# Measurements published in patent US9908912B2, “Triclosan derivatives and uses thereof” (priority 2012, dated 2018).
# Assays:
# [1] = tested on: Crono. sakazakii ATCC 29544; assay: MIC in Nutrient Broth No. 2; type: cell-based, Cronobacter sakazakii; conditions: Cronobacter sakazakii, ATCC29544; Nutrient Broth No. 2, 24 h, 37° C.; inducer not specified; read-out: MIC
# Experimental: (§1) Bacteria species as indicated in Table 1 were incubated for approximately 24 hours at 37° C.
# (§2) The tests were repeated with the addition of inducers. Methyl glycoside was the main inducer used, but other suitable inducers include isopropyl-β-D-thiogalactopyranoside, p-nitrophenyl-α-L-arabinopyranoside and p-nitrophenyl-β-D-xylopyranoside. Concentration of inducer in all cases was 100 μg/ml.
# Ent. cloacae ATCC 13047 = assay: MIC in Nutrient Broth No. 2; type: cell-based, Enterobacter cloacae; conditions: Enterobacter cloacae, ATCC13047; Nutrient Broth No. 2, 24 h, 37° C.; inducer not specified; read-out: MIC
# Experimental: as §1, §2
# E. hermanii ATCC 33650 = assay: MIC in Nutrient Broth No. 2; type: cell-based, Escherichia hermanii; conditions: Atlantibacter hermannii, ATCC33650; Nutrient Broth No. 2, 24 h, 37° C.; inducer not specified; read-out: MIC
# Experimental: as §1, §2
# [2] = tested on: Kleb. aerogenes NCTC 88167; assay: MIC in Nutrient Broth No. 2; type: cell-based, Klebsiella aerogenes; conditions: Klebsiella aerogenes, NCTC88167; Nutrient Broth No. 2, 24 h, 37° C.; inducer not specified; read-out: MIC
# Experimental: as §1, §2
# [3] = tested on: Kleb. pneumoniae ATCC 10031; assay: MIC in Nutrient Broth No. 2; type: cell-based, Klebsiella pneumoniae; conditions: Klebsiella pneumoniae, ATCC10031; Nutrient Broth No. 2, 24 h, 37° C.; inducer not specified; read-out: MIC
# Experimental: as §1, §2
# [4] = tested on: Aeromonas hydrophila OCC 778; assay: MIC in Nutrient Broth No. 2; type: cell-based; conditions: Aeromonas hydrophila, OCC778; Nutrient Broth No. 2, 24 h, 37° C.; inducer not specified; read-out: MIC
# Experimental: as §1, §2
# [5] = tested on: Bacillus cereus ATCC 14579; assay: MIC in Nutrient Broth No. 2; type: cell-based; conditions: Bacillus cereus, ATCC14579; Nutrient Broth No. 2, 24 h, 37° C.; inducer not specified; read-out: MIC
# Experimental: as §1, §2
# [6] = tested on: Bacillus subtilis NCTC 10073; assay: MIC in Nutrient Broth No. 2; type: cell-based; conditions: Bacillus subtilis, NCTC10073; Nutrient Broth No. 2, 24 h, 37° C.; inducer not specified; read-out: MIC
# Experimental: as §1, §2
# [7] = tested on: Citrobacter freundii OCC 851; assay: MIC in Nutrient Broth No. 2; type: cell-based; conditions: Citrobacter freundii, OCC851; Nutrient Broth No. 2, 24 h, 37° C.; inducer not specified; read-out: MIC
# Experimental: as §1, §2
# [8] = tested on: Enterobacter aerogenes ATCC 13048; assay: MIC in Nutrient Broth No. 2; type: cell-based; conditions: Klebsiella aerogenes, ATCC13048; Nutrient Broth No. 2, 24 h, 37° C.; inducer not specified; read-out: MIC
# Experimental: as §1, §2
# [9] = tested on: Enterococcus faecalis ATCC 29212; assay: MIC in Nutrient Broth No. 2; type: cell-based; conditions: Enterococcus faecalis, ATCC29212, 24 h
# Experimental: as §1, §2
# [10] = tested on: Enterococcus faecium ATCC 19434; assay: MIC in Nutrient Broth No. 2; type: cell-based; conditions: Enterococcus faecium, ATCC19434; Nutrient Broth No. 2, 24 h, 37° C.; inducer not specified; read-out: MIC
# Experimental: as §1, §2
# Escherichia coli = assay: MIC in Nutrient Broth No. 2; type: cell-based; conditions: Escherichia coli; 8 strains; Nutrient Broth No. 2, 24 h, 37° C.; inducer not specified; read-out: MIC
# Experimental: as §1, §2
# Hafnia alvei ATCC 13337 = assay: MIC in Nutrient Broth No. 2; type: cell-based; conditions: Hafnia alvei, ATCC13337; Nutrient Broth No. 2, 24 h, 37° C.; inducer not specified; read-out: MIC
# Experimental: as §1, §2
# [11] = tested on: Proteus mirabilis ATCC 12453; assay: MIC in Nutrient Broth No. 2; type: cell-based; conditions: Proteus mirabilis, ATCC12453; Nutrient Broth No. 2, 24 h, 37° C.; inducer not specified; read-out: MIC
# Experimental: as §1, §2
# Proteus vulgaris OCC 195 = assay: MIC in Nutrient Broth No. 2; type: cell-based; conditions: Proteus vulgaris, OCC195; Nutrient Broth No. 2, 24 h, 37° C.; inducer not specified; read-out: MIC
# Experimental: as §1, §2
# [12] = tested on: Ps. Aeruginosa ATCC 27853; assay: MIC in Nutrient Broth No. 2; type: cell-based; conditions: Pseudomonas aeruginosa, ATCC27853; Nutrient Broth No. 2, 24 h, 37° C.; inducer not specified; read-out: MIC
# Experimental: as §1, §2
# Salmonella = assay: MIC in Nutrient Broth No. 2; type: cell-based; conditions: Salmonella; 11 strains; Nutrient Broth No. 2, 24 h, 37° C.; inducer not specified; read-out: MIC
# Experimental: as §1, §2
# [13] = tested on: Serratia marcescens OCC 217; assay: MIC in Nutrient Broth No. 2; type: cell-based; conditions: Serratia marcescens, OCC217; Nutrient Broth No. 2, 24 h, 37° C.; inducer not specified; read-out: MIC
# Experimental: as §1, §2
# Staph. aureus = assay: MIC in Nutrient Broth No. 2; type: cell-based, Staphylococcus aureus; conditions: Staphylococcus aureus; 8 strains; Nutrient Broth No. 2, 24 h, 37° C.; inducer not specified; read-out: MIC
# Experimental: as §1, §2
# Staph. epidermidis = assay: MIC in Nutrient Broth No. 2; type: cell-based, Staphylococcus epidermidis; conditions: Staphylococcus epidermidis; 3 strains; Nutrient Broth No. 2, 24 h, 37° C.; inducer not specified; read-out: MIC
# Experimental: as §1, §2
# [14] = tested on: Staph. haemolyticus OCC 2223; assay: MIC in Nutrient Broth No. 2; type: cell-based, Staphylococcus haemolyticus; conditions: Staphylococcus haemolyticus, OCC2223; Nutrient Broth No. 2, 24 h, 37° C.; inducer not specified; read-out: MIC
# Experimental: as §1, §2
# [15] = tested on: Staph. saprophyticus ATCC 15305; assay: MIC in Nutrient Broth No. 2; type: cell-based, Staphylococcus saprophyticus; conditions: Staphylococcus saprophyticus, ATCC15305; Nutrient Broth No. 2, 24 h, 37° C.; inducer not specified; read-out: MIC
# Experimental: as §1, §2
# [16] = tested on: Strep. agalactiae OCC 182; assay: MIC in Nutrient Broth No. 2; type: cell-based, Streptococcus agalactiae; conditions: Streptococcus agalactiae, OCC182; Nutrient Broth No. 2, 24 h, 37° C.; inducer not specified; read-out: MIC
# Experimental: as §1, §2
# [17] = tested on: Strep. pneumoniae ATCC 6305; assay: MIC in Nutrient Broth No. 2; type: cell-based, Streptococcus pneumoniae; conditions: Streptococcus pneumoniae, ATCC6305; Nutrient Broth No. 2, 24 h, 37° C.; inducer not specified; read-out: MIC
# Experimental: as §1, §2
# [18] = tested on: Strep. pyogenes ATCC 19615; assay: MIC in Nutrient Broth No. 2; type: cell-based, Streptococcus pyogenes; conditions: Streptococcus pyogenes, ATCC19615; Nutrient Broth No. 2, 24 h, 37° C.; inducer not specified; read-out: MIC
# Experimental: as §1, §2
# Strep. viridans OCC 234 = assay: MIC in Nutrient Broth No. 2; type: cell-based, Streptococcus viridans; conditions: Streptococcus viridans, OCC234; Nutrient Broth No. 2, 24 h, 37° C.; inducer not specified; read-out: MIC
# Experimental: as §1, §2
# [19] = tested on: Bacteria species as indicated in Table 1; assay: MIC in Nutrient Broth No. 2 (over organisms of Table 1); type: cell-based; conditions: Table 1 organisms
# Experimental: as §1, §2
compound,measurement,setting,value
"Oc1cc(Cl)ccc1Oc1ccc(Cl)cc1Cl [Triclosan, 5-chloro-2-(2,4-dichlorophenoxy)phenol]",MIC,[1],0.5 µg/mL
same,MIC,Ent. cloacae ATCC 13047,0.5 µg/mL
same,MIC,E. hermanii ATCC 33650,0.5 µg/mL
same,MIC,[2],0.5 µg/mL
same,MIC,[3],0.1 µg/mL
same,MIC,[4],8 µg/mL
same,MIC,[5],2 µg/mL
same,MIC,[6],1 µg/mL
same,MIC,[7],0.5 µg/mL
same,MIC,[8],0.5 µg/mL
same,MIC,[9],8 µg/mL
same,MIC,[10],4 µg/mL
same,MIC,Escherichia coli,0.1 to 0.5 µg/mL
same,MIC,Hafnia alvei ATCC 13337,0.1 µg/mL
same,MIC,[11],0.5 µg/mL
same,MIC,Proteus vulgaris OCC 195,0.5 µg/mL
same,MIC,[12],32 µg/mL
same,MIC,Salmonella,0.5 to 1 µg/mL
same,MIC,[13],64 µg/mL
same,MIC,Staph. aureus,0.01 µg/mL
same,MIC,Staph. epidermidis,0.01 µg/mL
same,MIC,[14],0.01 µg/mL
same,MIC,[15],0.01 µg/mL
same,MIC,[16],4 µg/mL
same,MIC,[17],1 µg/mL
same,MIC,[18],1 µg/mL
same,MIC,Strep. viridans OCC 234,4 µg/mL
same,susceptibility of the organisms that were tested,[19],inhibited
